system: panel of solid and haemotological tumor cell lines (e.g., Hs578t, SiHa, MDA-MB-231); assay: MTS cell proliferation assay (cytotoxicity); type: cell-based; settings: Table 1 (Group 1), 72-96 hours, 10 mM lactate medium or RPMI 1640 medium, cell line not stated
Protocol: The anti-proliferation effect of MCT inhibition was investigated across a panel of solid and haemotological tumor cell lines. Cells were routinely cultured in their appropriate growth medium. On day 1, between 10,000-25,000 cells/well (e.g., Hs578t: 15,000 cells/well, SiHa: 10,000 cells/well, and MDA-MB-231: 25,000 cells/well) were plated into 96-well plates. 100 μL. of phosphate buffered saline solution was added to the external wells to prevent media evaporation. Plates were incubated in growth medium overnight at 37° C. in the presence of 5% CO2. On day 2, dry weight compound stocks were dissolved to a concentration of 10 mM in 100% DMSO. Compounds were further diluted in the assay medium; 10 mM lactate medium (without glucose, pyruvate, and glutamine) or RPMI 1640 medium (without pyruvate and glutamine) to generate a final dose range of 1 nM to 10 μM. Growth medium in the 96-well plate was replaced with the assay medium (10 mM lactate medium or RPMI medium or appropriate medium), and compounds were added to each well in the plate at different concentrations via serial dilution or pre-prepared solutions in assay medium. Plates were then incubated at 37° C. in the presence of 5% CO2 for a further 72-96 hours. On day 2-5, assay media was changed to 100 uL of DMEM/F12 and 20 μL of CellTiter 96 AQ MTS reagent was added to each well and the plate was returned to the incubator for 1-2 hours. MTS is bioreduced by NADPH or NADH produced by dehydrogenase enzymes in metabolically active cells into a coloured formazan product that is soluble in tissue culture medium. The amount of coloured formazan product is directly proportional to the number of living cells in culture. The absorbance of the plates was read on a Spectramax M5e plate reader using […] measurement wavelength. Dose response curves were plotted and IC50 values were calculated using GraphPad Prism. The IC50 value is equivalent to the concentration of compound that causes 50% inhibition of growth calculated from the compound treated signal to the vehicle treated signal.
Cytotoxicity of selected compounds is listed in Table 1, where IC50: A=<1 uM; B=1-10 uM; C=>10 uM; and NT=Not Tested.

| SMILES | IC50 |
| --- | --- |
| COc1ccc(CN(C)c2cc3oc(=O)c(C(=O)O)cc3s2)cc1 [Compound 1.021, 2-[(4-Methoxy-benzyl)-methyl-amino]-5-oxo-5H-thieno[3,2-b]pyran-6-carboxylic acid] | < 1 µM |
| CN(CC1CCOCC1)c1cc2oc(=O)c(C(=O)O)cc2s1 [Compound 1.008, 2-(methyl((tetrahydro-2H-pyran-4-yl)methyl)amino)-5-oxo-5H-thieno[3,2-b]pyran-6-carboxylic acid] | < 1 µM |
| CN(C(=O)c1ccc(F)cc1)c1cc2oc(=O)c(C(=O)O)cc2s1 [Compound 1.011, 2-(4-fluoro-N-methylbenzamido)-5-oxo-5H-thieno[3,2-b]pyran-6-carboxylic acid] | < 1 µM |
| CN(c1cc2oc(=O)c(C(=O)O)cc2s1)S(=O)(=O)c1cccc(C(F)(F)F)c1 [Compound 1.028, 2-[Methyl-(3-trifluoromethyl-benzenesulfonyl)-amino]-5-oxo-5H-thieno[3,2-b]pyran-6-carboxylic acid] | < 1 µM |
| CN(Cc1cccc(F)c1)c1cc2oc(=O)c(C(=O)O)cc2s1 [Compound 1.003, 2-((3-fluorobenzyl)(methyl)amino)-5-oxo-5H-thieno[3,2-b]pyran-6-carboxylic acid] | < 1 µM |
| CN(c1cc2oc(=O)c(C(=O)O)cc2s1)S(=O)(=O)c1ccc(C(F)(F)F)cc1 [Compound 1.027, 2-[Methyl-(4-trifluoromethyl-benzenesulfonyl)-amino]-5-oxo-5H-thieno[3,2-b]pyran-6-carboxylic acid] | < 1 µM |
| COc1ccc(S(=O)(=O)N(C)c2cc3oc(=O)c(C(=O)O)cc3s2)cc1 [Compound 1.025, 2-[(4-Methoxy-benzenesulfonyl)-methyl-amino]-5-oxo-5H-thieno[3,2-b]pyran-6-carboxylic acid] | < 1 µM |
| COc1ccc(C(=O)N(C)c2cc3oc(=O)c(C(=O)O)cc3s2)cc1 [Compound 1.016, 2-[(4-Methoxy-benzoyl)-methyl-amino]-5-oxo-5H-thieno[3,2-b]pyran-6-carboxylic acid] | < 1 µM |
| COc1cc(C(=O)N(C)c2cc3oc(=O)c(C(=O)O)cc3s2)ccc1F [Compound 1.019, 2-[(4-Fluoro-3-methoxy-benzoyl)-methyl-amino]-5-oxo-5H-thieno[3,2-b]pyran-6-carboxylic acid] | < 1 µM |
| CN(C(=O)C1CCCCC1)c1cc2oc(=O)c(C(=O)O)cc2s1 [Compound 1.010, 2-(N-methylcyclohexanecarboxamido)-5-oxo-5H-thieno[3,2-b]pyran-6-carboxylic acid] | < 1 µM |
| CN(Cc1ccc(C(F)(F)F)cc1)c1cc2oc(=O)c(C(=O)O)cc2s1 [Compound 1.023, 2-[Methyl-(4-trifluoromethyl-benzyl)-amino]-5-oxo-5H-thieno[3,2-b]pyran-6-carboxylic acid] | < 1 µM |
| CN(c1cc2oc(=O)c(C(=O)O)cc2s1)S(=O)(=O)c1ccc(F)cc1 [Compound 1.026, 2-[(4-Fluoro-benzenesulfonyl)-methyl-amino]-5-oxo-5H-thieno[3,2-b]pyran-6-carboxylic acid] | < 1 µM |
| CN(C(=O)C1CCOCC1)c1cc2oc(=O)c(C(=O)O)cc2s1 [Compound 1.018, 2-[Methyl-(tetrahydro-pyran-4-carbonyl)-amino]-5-oxo-5H-thieno[3,2-b]pyran-6-carboxylic acid] | < 1 µM |
| CN(C(=O)c1cccc(C(F)(F)F)c1)c1cc2oc(=O)c(C(=O)O)cc2s1 [Compound 1.015, 2-[Methyl-(3-trifluoromethyl-benzoyl)-amino]-5-oxo-5H-thieno[3,2-b]pyran-6-carboxylic acid] | < 1 µM |

same assay, conditions: Table 2 (Group 2), 72-96 hours, 10 mM lactate medium or RPMI 1640 medium, cell line not stated

| SMILES | IC50 |
| --- | --- |
| CCOc1cc(NC(=O)N(C)c2cc3oc(=O)c(C(=O)O)cc3s2)ccc1F [Compound 2.017, 2-(3-(3-ethoxy-4-fluorophenyl)-1-methylureido)-5-oxo-5H-thieno[3,2-b]pyran-6-carboxylic acid] | < 1 µM |
| CN(C(=O)N[C@H]1CC[C@H](C)CC1)c1cc2oc(=O)c(C(=O)O)cc2s1 [Compound 2.020, 2-(1-methyl-3-((1r,4r)-4-methylcyclohexyl)ureido)-5-oxo-5H-thieno[3,2-b]pyran-6-carboxylic acid] | < 1 µM |
| COc1ccc(NC(=O)N(C)c2cc3oc(=O)c(C(=O)O)cc3s2)cc1 [Compound 2.008, 2-(3-(4-methoxyphenyl)-1-methylureido)-5-oxo-5H-thieno[3,2-b]pyran-6-carboxylic acid] | < 1 µM |
| CN(C(=O)Nc1ccc(Oc2ccccc2Cl)cc1)c1cc2oc(=O)c(C(=O)O)cc2s1 [Compound 2.041, 2-(3-(4-(2-chlorophenoxy)phenyl)-1-methylureido)-5-oxo-5H-thieno[3,2-b]pyran-6-carboxylic acid] | < 1 µM |
| CN(C(=O)N1CCCCC1)c1cc2oc(=O)c(C(=O)O)cc2s1 [Compound 2.045, 2-(N-methylpiperidine-1-carboxamido)-5-oxo-5H-thieno[3,2-b]pyran-6-carboxylic acid] | < 1 µM |
| COc1ccc(OC)c(NC(=O)N(C)c2cc3oc(=O)c(C(=O)O)cc3s2)c1 [Compound 2.013, 2-(3-(2,5-dimethoxyphenyl)-1-methylureido)-5-oxo-5H-thieno[3,2-b]pyran-6-carboxylic acid] | < 1 µM |
| CN(C(=O)Nc1ccc(O)cc1)c1cc2oc(=O)c(C(=O)O)cc2s1 [Compound 2.023, 2-(3-(4-hydroxyphenyl)-1-methylureido)-5-oxo-5H-thieno[3,2-b]pyran-6-carboxylic acid] | < 1 µM |
| CN(C(=O)NC1CCCCC1)c1cc2oc(=O)c(C(=O)O)cc2s1 [Compound 2.007, 2-(3-cyclohexyl-1-methylureido)-5-oxo-5H-thieno[3,2-b]pyran-6-carboxylic acid] | < 1 µM |
| CN(C(=O)Nc1ccc(C(F)(F)F)cc1)c1cc2oc(=O)c(C(=O)O)cc2s1 [Compound 2.012, 2-(1-methyl-3-(4-(trifluoromethyl)phenyl)ureido)-5-oxo-5H-thieno[3,2-b]pyran-6-carboxylic acid] | < 1 µM |
| CN(C(=O)Nc1cccc2c1CCCC2)c1cc2oc(=O)c(C(=O)O)cc2s1 [Compound 2.038, 2-(1-methyl-3-(5,6,7,8-tetrahydronaphthalen-1-yl)ureido)-5-oxo-5H-thieno[3,2-b]pyran-6-carboxylic acid] | < 1 µM |
| CCOc1ccccc1NC(=O)N(C)c1cc2oc(=O)c(C(=O)O)cc2s1 [Compound 2.010, 2-(3-(2-ethoxyphenyl)-1-methylureido)-5-oxo-5H-thieno[3,2-b]pyran-6-carboxylic acid] | < 1 µM |
| CN(C(=O)Nc1ccc(OC(F)(F)F)cc1)c1cc2oc(=O)c(C(=O)O)cc2s1 [Compound 2.019, 2-(1-methyl-3-(4-(trifluoromethoxy)phenyl)ureido)-5-oxo-5H-thieno[3,2-b]pyran-6-carboxylic acid] | < 1 µM |
| CN(C(=O)NC1CCOCC1)c1cc2oc(=O)c(C(=O)O)cc2s1 [Compound 2.043, 2-(1-methyl-3-(tetrahydro-2H-pyran-4-yl)ureido)-5-oxo-5H-thieno[3,2-b]pyran-6-carboxylic acid] | < 1 µM |
| CN(C(=O)Nc1ccccc1F)c1cc2oc(=O)c(C(=O)O)cc2s1 [Compound 2.024, 2-(3-(2-fluorophenyl)-1-methylureido)-5-oxo-5H-thieno[3,2-b]pyran-6-carboxylic acid] | < 1 µM |
| CN(C(=O)Nc1cc(C(C)(C)C)on1)c1cc2oc(=O)c(C(=O)O)cc2s1 [Compound 2.055, 2-(3-(5-(tert-butyl)isoxazol-3-yl)-1-methylureido)-5-oxo-5H-thieno[3,2-b]pyran-6-carboxylic acid] | < 1 µM |
| CN(C(=O)c1cccc(-c2ccc(F)cc2)c1)c1cc2oc(=O)c(C(=O)O)cc2s1 [Compound 2.031, 2-(4′-fluoro-N-methyl-[1,1′-biphenyl]-3-carboxamido)-5-oxo-5H-thieno[3,2-b]pyran-6-carboxylic acid] | < 1 µM |
| Cc1cccc(NC(=O)N(C)c2cc3oc(=O)c(C(=O)O)cc3s2)c1 [Compound 2.036, 2-(1-methyl-3-(m-tolyl)ureido)-5-oxo-5H-thieno[3,2-b]pyran-6-carboxylic acid] | < 1 µM |
| CN(C(=O)c1ccc(-c2ccccc2)cc1)c1cc2oc(=O)c(C(=O)O)cc2s1 [Compound 2.028, 2-(N-methyl-[1,1′-biphenyl]-4-carboxamido)-5-oxo-5H-thieno[3,2-b]pyran-6-carboxylic acid] | < 1 µM |
| COc1cc(NC(=O)N(C)c2cc3oc(=O)c(C(=O)O)cc3s2)ccc1F [Compound 2.016, 2-(3-(4-fluoro-3-methoxyphenyl)-1-methylureido)-5-oxo-5H-thieno[3,2-b]pyran-6-carboxylic acid] | < 1 µM |

— patent US20220249454A1, “INHIBITORS OF MONOCARBOXYLATE TRANSPORTERS FOR CANCER IMMUNOTHERAPY” (NIROGY THERAPEUTICS, INC., priority 2021, published 2022)
